The source of these data is US20260209294A1, “USE OF RECOMBINANT PROTEIN IN PREPARING DRUG FOR INHIBITING ANEURYSM” (HUAZHONG UNIVERSITY OF SCIENCE AND TECHNOLOGY, priority 2022, published 2026).

Experiment [1] deals with TAC-induced carotid artery dilation, remodeling, and inflammation. In words: Pirfenidone in TAC model in WT and Aggf1+/- mice. It counts as in vivo. As to conditions: for level of AGGF1 in the RCA / level of p-ERK1/2 in the RCA / level of p-Smad3 in the RCA: Western blot; for expansion of the right carotid artery / ratio of the flow velocity between right/left carotid: 3 weeks after TAC; for right carotid artery inflammation (MCP1 and CD68) / right carotid artery vascular remodeling (H&E staining, Sirius red and αSMA): after TAC. An excerpt:
The bar graphs below show the intimal thickness (1st graph), the adventitia thickness (2nd graph), the total carotid artery wall thickness (3rd graph), the medial cell density (4th graph), and the adventitia cell density (5th graph). […] The bar graphs on the right show the percentage of the positive area for the respective immunostaining quantification. […] The GAPDH serves as a loading control. *, P<0.05; **, P<0.01; ***, P<0.001; n=5/group for mouse studies, other sample sizes n=4/group. In FIG. 11, we used VSMC in vitro incubated with TGF-β1 and pirfenidone (PFD). […] In FIG. 12, we used Aggf1 systemic knockout mice for experiments.
In general terms: Immunoblotting shows a protein as a band on a membrane.

In another experiment the test system is VSMC cells. In words: VSMC incubated in vitro with TGF-β1 or pirfenidone (PFD): Western blot, ELISA, RT-PCR. It counts as cell-based. As to conditions: for level of AGGF1: Western blot, treatment 2 days and 4 days. As to the method: The VSMCs are starved for 12 hours prior to stimulation with TGF-β1. […] Normalized to β-actin. *, P<0.05; **, P<0.01; ***, P<0.001; n≥4/group for the study.
In FIG. 11, we used VSMC in vitro incubated with TGF-β1 and pirfenidone (PFD). […] In FIG. 12, we used Aggf1 systemic knockout mice for experiments.

[2] abbreviates: Aggf1 heterozygous knockout mice (Aggf1+/-).

In the case of `Cc1ccc(=O)n(-c2ccccc2)c1` [PFD, pirfenidone], in experiment [1] (Aggf1+/- mice after TAC), the “level of AGGF1 in the RCA” value is “did not have this effect”, the “level of p-ERK1/2 in the RCA” value is “did not have this effect” and the “level of p-Smad3 in the RCA” value is “did not have this effect”. Besides, in experiment [1] (setting [2]), the “expansion of the right carotid artery” value is recorded as “did not possess such effects”; the “ratio of the flow velocity between right/left carotid” value is “did not possess such effects”; the “right carotid artery inflammation (MCP1 and CD68)” value is “did not possess such effects”; the “right carotid artery vascular remodeling (H&E staining, Sirius red and αSMA)” value is “did not possess such effects”. Besides, in experiment [1] (WT mice after TAC), the “level of AGGF1 in the RCA” value is “significantly increase”, the “level of p-ERK1/2 in the RCA” value is reported as “reduce” and the “level of p-Smad3 in the RCA” value is recorded as “reduce”. Also, in experiment [1] (WT mice), the “expansion of the right carotid artery” value was “significantly reduce”; the “ratio of the flow velocity between right/left carotid” value is listed as “significantly reduce”; the “right carotid artery inflammation (MCP1 and CD68)” value is “significantly reduce”; the “right carotid artery vascular remodeling (H&E staining, Sirius red and αSMA)” value is “significantly reduce”. Besides, the “mRNA levels of Tgfb1 and Tgfb2” value in the experiment with VSMC cells (RT-PCR, after 2 days) is “no effect”. Besides, the “synthesis of the mature TGF-β1” value in the experiment on VSMC cells (Western blot 2 and 4 days, ELISA 2 days) was “inhibited”. Moreover, the “level of AGGF1” value in the experiment with VSMC cells is “increased”.
For the compound “TGF-β1: TGF-β1 used to stimulate VSMC cells in vitro”, in the experiment on VSMC cells, the “level of AGGF1” value is reported as “inhibit”.
